Test results from patent US20250011348A1, “Synthesis Process of X-IPM, Stable Crystal Form and Application Thereof” (ASCENTAWITS PHARMACEUTICALS, LTD., priority 2023, published 2025).
Where two headings read alike, the source gives them in different places.

Protocol: On different days, samples were taken at the same time for analysis and detection of related substances, and their contents were recorded.

## isophosphoramide nitrogen mustard [Br-IPM]
Placed at 40° C.
  Stability of the Br-IPM crystals on storage (in words): unstable
Stored at 2-8° C., day 0
  Br-IPM content in the analysis of related substances: 93.23%
Stored at 2-8° C., day 3
  Br-IPM content in the analysis of related substances: 93.28%
Stored at 2-8° C., day 4
  Br-IPM content in the analysis of related substances: 95.06%
Stored at 2-8° C., day 5
  Br-IPM content in the analysis of related substances: 94.29%
Stored at 2-8° C., day 6
  Br-IPM content in the analysis of related substances: 94.56%
Stored at 2-8° C., day 7
  Br-IPM content in the analysis of related substances: 95.57%
Stored at 2-8° C., day 10
  Br-IPM content in the analysis of related substances: 95.17%
Stored at 2-8° C., day 11
  Br-IPM content in the analysis of related substances: 95.07%
Stored at 2-8° C., day 12
  Br-IPM content in the analysis of related substances: 95.07%
Stored at 2-8° C., day 13
  Br-IPM content in the analysis of related substances: 95.44%
Stored at 2-8° C., day 14
  Br-IPM content in the analysis of related substances: 95.25%
Stored at 2-8° C., day 17
  Br-IPM content in the analysis of related substances: 95.76%
Stored at 2-8° C., day 21
  Br-IPM content in the analysis of related substances: 95.19%
Stored at 2-8° C., day 28
  Br-IPM content in the analysis of related substances: 96.22%
Stored at 2-8° C., day 35
  Br-IPM content in the analysis of related substances: 95.09%
Stored at 25° C. (room temperature)
  Time for which the Br-IPM crystals are relatively stable / can be stored: 28 days
Stored at 25° C., day 0
  Br-IPM content in the analysis of related substances: 93.23%
Stored at 25° C., day 3
  Br-IPM content in the analysis of related substances: 94.17%
Stored at 25° C., day 4
  Br-IPM content in the analysis of related substances: 94.89%
Stored at 25° C., day 5
  Br-IPM content in the analysis of related substances: 94.53%
Stored at 25° C., day 6
  Br-IPM content in the analysis of related substances: 94.32%
Stored at 25° C., day 7
  Br-IPM content in the analysis of related substances: 93.86%
Stored at 25° C., day 10
  Br-IPM content in the analysis of related substances: 94.64%
Stored at 25° C., day 11
  Br-IPM content in the analysis of related substances: 95.25%
Stored at 25° C., day 12
  Br-IPM content in the analysis of related substances: 94.97%
Stored at 25° C., day 13
  Br-IPM content in the analysis of related substances: 95.28%
Stored at 25° C., day 14
  Br-IPM content in the analysis of related substances: 94.61%
Stored at 25° C., day 17
  Br-IPM content in the analysis of related substances: 94.75%
Stored at 25° C., day 21
  Br-IPM content in the analysis of related substances: 93.81%
Stored at 25° C., day 28
  Br-IPM content in the analysis of related substances: 94.01%
Stored at 25° C., day 35
  Br-IPM content in the analysis of related substances: 91.42%
Stored at 40° C., day 0
  Br-IPM content in the analysis of related substances: 93.23%
Stored at 40° C., day 3
  Br-IPM content in the analysis of related substances: 86.36%
Stored at −5° C., day 0
  Br-IPM content in the analysis of related substances: 93.23%
Stored at −5° C., day 3
  Br-IPM content in the analysis of related substances: 94.65%
Stored at −5° C., day 4
  Br-IPM content in the analysis of related substances: 95.12%
Stored at −5° C., day 5
  Br-IPM content in the analysis of related substances: 94.07%
Stored at −5° C., day 6
  Br-IPM content in the analysis of related substances: 95.48%
Stored at −5° C., day 7
  Br-IPM content in the analysis of related substances: 94.96%
Stored at −5° C., day 10
  Br-IPM content in the analysis of related substances: 95.03%
Stored at −5° C., day 11
  Br-IPM content in the analysis of related substances: 95.50%
Stored at −5° C., day 12
  Br-IPM content in the analysis of related substances: 95.04%
Stored at −5° C., day 13
  Br-IPM content in the analysis of related substances: 95.23%
Stored at −5° C., day 14
  Br-IPM content in the analysis of related substances: 95.28%
Stored at −5° C., day 17
  Br-IPM content in the analysis of related substances: 95.07%
Stored at −5° C., day 21
  Br-IPM content in the analysis of related substances: 95.30%
Stored at −5° C., day 28
  Br-IPM content in the analysis of related substances: 94.83%
Stored at −5° C., day 35
  Br-IPM content in the analysis of related substances: 94.64%
